Where “and” joins values, the source holds several entries; their conditions need not be identical. Equal values may be shown once.
Tests used:
[1] = Dynamic light scattering of macrocycle aggregates in water; assay type: physicochemical; settings: H2O, 298 K
Description: The next stage of the work was the study of aggregation properties of both previously synthesized ester derivatives of amino acids 1 and 2, and macrocyclic betaine derivatives 3 and 4 by dynamic light scattering (DLS). The study was carried out in water in the 1 × 10^–6–1 × 10^–4 M concentration range (Figures S11–S22). The size of associates increases with decreasing macrocycle 1 concentration in solution (Table 1). A different pattern is observed for betaine derivative 3. Thus, the particles become coarser, and the polydispersity index (PDI) of the systems increased with an increase in compound 3 concentration, which is probably due to the formation of β-sheets by oligopeptide substituents. The presence of two oppositely charged fragments in one substituent leads to the fact that compound 3 becomes similar to surfactant molecules in terms of its aggregation properties.

[2] = Dynamic light scattering of (macrocycle-DNA)-GIS associates in Tris-HCl buffer; assay type: physicochemical; settings: CPA 3 × 10^–6 M, CDNA 2.5 × 10^–7 M, CGIS 3 × 10^–6 M
Text: The obtained (macrocycle-DNA)-GIS associates were also studied by DLS in Tris-HCl buffer solution. The concentration of each component of the mixture was the same as in the experiments performed by UV-Vis spectroscopy (CPA = 3 × 10^–6 M, CDNA = 2.5 × 10^–7 M, CGIS = 3 × 10^–6 M). The formation of the stable aggregates (d = 183 ± 5 nm, PDI = 0.19, and ζ = –22.2 mV) was found only for the system based on macrocycle 2 with phenylalanine ester fragments (Figure S33). […] This, apparently, leads to the formation of stable aggregates in the case of the three-component (macrocycle-DNA)-GIS systems. The associate’s formation for three-component (2–DNA)–GIS system was additionally confirmed by TEM (Figure 8). It was shown that spherical nanosized particles with sizes close to those determined by DLS are formed.

[3] = Transmission electron microscopy of aggregates; assay type: physicochemical; settings: 1 × 10^−4 M in water
Text: The nanosized aggregates formed by macrocycle 2 were studied by transmission electron microscopy (TEM). The formation of the spherical nanosized particles with sizes close to those determined by DLS was confirmed.

A549 cells [4] = assay: MTT test, A549 cells
Description: (§1) The next stage of this work was the study of pillar[5]arenes 1–4 ability to inhibit the viability and proliferative activity of embryonic lung epithelial (LEC) and human lung adenocarcinoma (A549) cells using the MTT test.
(§2) Further, the ability of GIS to inhibit the viability and proliferative activity of LEC and A549 cells was studied by the MTT test. […] The average inhibitory concentration (IC50) was calculated for GIS (Table 3). […]
(§3) 1.6. Cytotoxicity of pillar[5]arenes 1–4, GIS and their mixtures on A549 and LEC Cell Lines […]
(§4) activity of LEC cells and A549 cells was investigated using the MTT test according to [2]. A549 – human alveolar adenocarcinoma cell line (ATCC, Rockville, Maryland, USA) and cow embryo lung epithelial (LEC) cells (Animal Cell Culture Collection of Russian Academy of Agricultural Science, Kazan, Russia) were cultured in DMEM (GIBCO, Waltham, MA, USA) medium supplemented with 10% serum and 100 units/mL of penicillin (PanEco, Moscow, Russia) and streptomycin (PanEco, Moscow, Russia) in a humidified atmosphere with 5% CO2 at 37 °C. Cells were seeded in 96‐well plates at a concentration of 10^4 cells/well. After 24 h of cultivation, the medium was removed from the wells and replaced with a fresh one with the addition of the test substances. The volume of the culture medium in the wells was 100
(§5) μL. After 24 h incubation of cells in the presence of substances, the medium in the wells was replaced with a fresh one containing MTT reagent at a final concentration of 0.5 mg/mL. The cells were incubated with MTT for 4 h at 37 °C in an atmosphere of 5% CO2. Then, the medium was aspirated from the wells and 100 μL of dimethyl sulfoxide was added. Probes were incubated at 37 °C for 15 min in the dark for the formazan crystals to dissolve. The optical density of the formazan solution in the wells was measured using a plate reader (BioRad xMarkTM Microplate Spectrophotometer, USA) at a wavelength of 570 nm.
(§6) Three series of experiments were carried out with at least 8 replications for each variant in the series. […]

LEC cells [5] = assay: MTT test, LEC cells
Description: as §1, §2, §3, §4, §5, §6

A549 cells [6] = assay: Apoptosis induction by flow cytometry (DiOC6/PI), A549 cells; assay type: cell-based, human; settings: A549, 25 μg/mL, 24 h
Description: (§7) The cytotoxic effect of pillar[5]arene 2 containing ester fragments of phenylalanine is probably due to the stable aggregates’ formation (Table 1). […] The agent concentration of 25 μg/mL was chosen for the experiment. […] The apoptosis-inducing effect of compound 2 on A549 and LEC cells turned out approximately the same. […]
(§8) buffer solution. The UV spectra of the solutions were then recorded. The stability constant of complex was calculated by Bindfit. Three independent experiments were carried out for each series. […]
(§9) volume of 3 mL with Tris‐HCl buffer solution. The UV spectra of the solutions were then recorded. The stability constant of each complex was calculated by Bindfit. Three independent experiments were carried […]
(§10) stability constant of complex was calculated by Bindfit. Three independent experiments were carried out […]
(§11) humidified atmosphere with 5% CO2 at 37 °C. […]
(§12) fresh one with the addition of the test substances.
(§13) Then, the medium was aspirated from the wells and 100 μL of dimethyl sulfoxide was added. […]
(§14) the formazan crystals to dissolve.
(§15) BD FACSCanto II flow cytometer. […]
(§16) humidified atmosphere with 5% CO2. […]
(§17) substances. […] After 24 h of incubation cells were […]

LEC cells [7] = assay: Apoptosis induction by flow cytometry (DiOC6/PI), LEC cells; assay type: cell-based, cow; settings: 25 μg/mL, 24 h
Description: as §7, §8, §9, §10, §11, §12, §13, §14, §15, §16, §17

A549 cells [8] = assay: MTT assay, combined action of macrocycles with GIS on A549 cells; assay type: cell-based, human; settings: A549, pillararene 1 × 10^–5 M with GIS 3.47 × 10^–2 M
Description: The ability to inhibit the viability and proliferative activity of A549 cells of macrocycles 1–4 in the presence of GIS was studied using the MTT assay. […] The developed approach opens up the possibility of creating pillar[5]arene-based herbicide antidotes. […]
as §12
Then, the medium was aspirated from the wells
and 100 μL of dimethyl sulfoxide was added.
the formazan crystals to dissolve. […]
as §17

- polydispersity index (PDI) ([1]; 1 × 10^–4 M): 0.24
- size of aggregates d ([1]; 1 × 10^–4 M): 179 nm and 179 ± 8 nm
- zeta potential ζ ([1]; 1 × 10^–4 M): +15.9 mV
- polydispersity index (PDI) ([1]; 1 × 10^–5 M): 0.21
- size of aggregates d ([1]; 1 × 10^–5 M): 157 ± 2 nm
- zeta potential ζ ([1]; 1 × 10^–5 M): +31.6 mV
- polydispersity index (PDI) ([1]; 1 × 10^–6 M): 0.28
- size of aggregates d ([1]; 1 × 10^–6 M): 144 nm and 144 ± 7 nm
- zeta potential ζ ([1]; 1 × 10^–6 M): +12.5 mV
- PDI of three-component (macrocycle-DNA)-GIS system [2]: 0.19
- size of aggregates d of three-component (macrocycle-DNA)-GIS system [2]: 183 ± 5 nm
- zeta potential ζ of three-component (macrocycle-DNA)-GIS system [2]: –22.2 mV
- average diameter of particles (TEM) [3]: 50 nm
- IC50 (A549 cells [4]; A549, MTT, 24 h): 29.67 mg/L
SMILES: CCOC(=O)[C@H](Cc1ccccc1)NC(=O)C[N+](C)(C)CCCNC(=O)COc1cc2c(OCC(=O)NCCC[N+](C)(C)CC(=O)N[C@@H](Cc3ccccc3)C(=O)OCC)cc1Cc1cc(OCC(=O)NCCC[N+](C)(C)CC(=O)N[C@@H](Cc3ccccc3)C(=O)OCC)c(cc1OCC(=O)NCCC[N+](C)(C)CC(=O)N[C@@H](Cc1ccccc1)C(=O)OCC)Cc1cc(OCC(=O)NCCC[N+](C)(C)CC(=O)N[C@@H](Cc3ccccc3)C(=O)OCC)c(cc1OCC(=O)NCCC[N+](C)(C)CC(=O)N[C@@H](Cc1ccccc1)C(=O)OCC)Cc1cc(OCC(=O)NCCC[N+](C)(C)CC(=O)N[C@@H](Cc3ccccc3)C(=O)OCC)c(cc1OCC(=O)NCCC[N+](C)(C)CC(=O)N[C@@H](Cc1ccccc1)C(=O)OCC)Cc1cc(OCC(=O)NCCC[N+](C)(C)CC(=O)N[C@@H](Cc3ccccc3)C(=O)OCC)c(cc1OCC(=O)NCCC[N+](C)(C)CC(=O)N[C@@H](Cc1ccccc1)C(=O)OCC)C2.[Br-].[Br-].[Br-].[Br-].[Br-].[Br-].[Br-].[Br-].[Br-].[Br-] [Compound 2]
- concentration at which viability was reduced (A549 cells [4]; A549): ≥ 5 µg/mL
- concentration at which viability was reduced (LEC cells [5]): ≥ 5 µg/mL
- IC50 (LEC cells [5]; MTT, 24 h): 28.16 mg/L
- proportion of living cells (Live, percentage of stained cells) (A549 cells [6]): 74.8%
- proportion of living cells (Live, percentage of stained cells) (LEC cells [7]): 72.7%
- change of toxicity on combined action with GIS (A549 cells [8]): increase in toxicity

From article PMC10179701, “Towards Protection of Nucleic Acids from Herbicide Attack: Self-Assembly of Betaines Based on Pillar[5]arene with Glyphosate and DNA” (International Journal of Molecular Sciences, 2023)
